In ChEMBL document CHEMBL3588844, “Discovery of A-893, A New Cell-Active Benzoxazinone Inhibitor of Lysine Methyltransferase SMYD2” (ACS Med Chem Lett, 2015):
Active and inactive are the calls of the source. The rule behind the calls is not given here.

Tests used:
[1] = target: N-lysine methyltransferase SMYD2 (Homo sapiens, UniProt Q9NRG4)
[2] = target: PRMT5/MEP50 complex (Homo sapiens) (UniProt O14744+Q9BQA1); assay: Inhibition of PRMT5-MEP50 complex (unknown origin) assessed as incorporation of tritium labeled methyl group from [3H]-SAM to substrate at 1 uM after 1 hr by scintillation proximity assay relative to control; type: protein-complex assay
[3] = target: Histone-lysine N-methyltransferase NSD3 (Homo sapiens) (UniProt Q9BZ95); assay: Inhibition of NSD3 (unknown origin) at 1 uM after 1 hr by filter-based assay
[4] = target: N-lysine methyltransferase KMT5A (Homo sapiens) (UniProt Q9NQR1); assay: Inhibition of SETD8 (unknown origin) assessed as incorporation of tritium labeled methyl group from [3H]-SAM to substrate at 1 uM after 1 hr by scintillation proximity assay relative to control
Sequence of N-lysine methyltransferase KMT5A (Homo sapiens) (Q9NQR1 whole entry): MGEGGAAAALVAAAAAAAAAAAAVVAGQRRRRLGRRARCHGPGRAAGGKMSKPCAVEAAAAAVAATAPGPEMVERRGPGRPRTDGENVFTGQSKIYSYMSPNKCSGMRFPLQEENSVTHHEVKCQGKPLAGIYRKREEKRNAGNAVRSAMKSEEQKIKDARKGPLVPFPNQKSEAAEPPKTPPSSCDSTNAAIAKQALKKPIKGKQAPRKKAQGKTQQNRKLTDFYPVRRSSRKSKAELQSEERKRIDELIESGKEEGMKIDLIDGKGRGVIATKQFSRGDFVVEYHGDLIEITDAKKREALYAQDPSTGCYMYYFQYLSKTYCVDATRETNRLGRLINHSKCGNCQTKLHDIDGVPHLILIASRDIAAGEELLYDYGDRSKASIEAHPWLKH

[5] = target: Protein arginine N-methyltransferase 7 (Homo sapiens) (UniProt Q9NVM4); assay: Inhibition of PRMT7 (unknown origin) assessed as incorporation of tritium labeled methyl group from [3H]-SAM to substrate at 10 to 50 uM after 1 hr by scintillation proximity assay relative to control
Sequence of Protein arginine N-methyltransferase 7 (Homo sapiens) (Q9NVM4 whole entry): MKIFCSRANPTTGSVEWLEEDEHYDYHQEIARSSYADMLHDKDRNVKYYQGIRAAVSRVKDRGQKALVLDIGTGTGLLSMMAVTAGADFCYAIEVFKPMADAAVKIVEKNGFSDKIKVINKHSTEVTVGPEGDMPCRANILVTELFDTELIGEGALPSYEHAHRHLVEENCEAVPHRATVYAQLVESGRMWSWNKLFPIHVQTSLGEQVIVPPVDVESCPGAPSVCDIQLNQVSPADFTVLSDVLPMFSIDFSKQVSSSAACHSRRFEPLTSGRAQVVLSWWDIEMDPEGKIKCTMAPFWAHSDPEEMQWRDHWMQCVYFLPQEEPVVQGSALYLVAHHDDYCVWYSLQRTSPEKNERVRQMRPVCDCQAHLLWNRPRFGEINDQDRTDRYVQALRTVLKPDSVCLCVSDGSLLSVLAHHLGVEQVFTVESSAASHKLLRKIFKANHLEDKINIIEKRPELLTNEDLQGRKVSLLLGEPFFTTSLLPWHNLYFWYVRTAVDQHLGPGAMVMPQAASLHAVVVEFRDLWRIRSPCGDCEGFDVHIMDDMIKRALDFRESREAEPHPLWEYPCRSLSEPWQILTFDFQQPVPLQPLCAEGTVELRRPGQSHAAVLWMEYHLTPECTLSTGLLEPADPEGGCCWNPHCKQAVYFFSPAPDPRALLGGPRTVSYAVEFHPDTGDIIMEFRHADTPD

[6] = target: Histone-lysine N-methyltransferase KMT5C (Homo sapiens) (UniProt Q86Y97); assay: Inhibition of SUV420H2 (unknown origin) at 1 uM after 1 hr by filter-based assay
[7] = target: RNA 5'-monophosphate methyltransferase (Homo sapiens) (UniProt Q7Z5W3); assay: Inhibition of BCDIN3D (unknown origin) assessed as incorporation of tritium labeled methyl group from [3H]-SAM to substrate at 1 uM after 1 hr by scintillation proximity assay relative to control
Sequence of RNA 5'-monophosphate methyltransferase (Homo sapiens) (Q7Z5W3 whole entry): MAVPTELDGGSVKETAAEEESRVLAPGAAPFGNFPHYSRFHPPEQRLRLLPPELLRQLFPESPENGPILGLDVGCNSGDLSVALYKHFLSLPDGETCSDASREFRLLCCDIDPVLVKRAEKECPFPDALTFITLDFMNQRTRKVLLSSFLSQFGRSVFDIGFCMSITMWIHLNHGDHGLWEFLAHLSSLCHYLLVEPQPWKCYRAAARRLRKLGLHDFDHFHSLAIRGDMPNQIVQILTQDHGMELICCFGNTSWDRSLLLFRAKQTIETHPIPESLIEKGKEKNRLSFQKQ

[8] = target: Protein arginine N-methyltransferase 7 (Homo sapiens) (UniProt Q9NVM4); assay: Inhibition of PRMT7 (unknown origin) assessed as incorporation of tritium labeled methyl group from [3H]-SAM to substrate at 1 uM after 1 hr by scintillation proximity assay relative to control
[9] = target: Histone-lysine N-methyltransferase SETDB1 (Homo sapiens) (UniProt Q15047); assay: Inhibition of SETDB1 (unknown origin) assessed as incorporation of tritium labeled methyl group from [3H]-SAM to substrate at 1 uM after 1 hr by scintillation proximity assay relative to control
[10] = target: DNMT3A2/3L complex (Homo sapiens) (UniProt Q9Y6K1+Q9UJW3); assay: Inhibition of DNMT3A/3L (unknown origin) at 1 uM after 1 hr by filter-based assay; type: protein-complex assay
[11] = target: Histone-lysine N-methyltransferase ASH1L (Homo sapiens) (UniProt Q9NR48); assay: Inhibition of ASH1L (unknown origin) at 1 uM after 1 hr by filter-based assay
[12] = target: Histone-lysine N-methyltransferase, H3 lysine-79 specific (Homo sapiens) (UniProt Q8TEK3); assay: Inhibition of DOT1L (unknown origin) at 1 uM after 1 hr by filter-based assay
[13] = target: Histone-lysine N-methyltransferase SMYD3 (Homo sapiens) (UniProt Q9H7B4); assay: Inhibition of SMYD3 (unknown origin) assessed as incorporation of tritium labeled methyl group from [3H]-SAM to substrate at 10 to 50 uM after 1 hr by scintillation proximity assay relative to control
Sequence of Histone-lysine N-methyltransferase SMYD3 (Homo sapiens) (Q9H7B4 whole entry): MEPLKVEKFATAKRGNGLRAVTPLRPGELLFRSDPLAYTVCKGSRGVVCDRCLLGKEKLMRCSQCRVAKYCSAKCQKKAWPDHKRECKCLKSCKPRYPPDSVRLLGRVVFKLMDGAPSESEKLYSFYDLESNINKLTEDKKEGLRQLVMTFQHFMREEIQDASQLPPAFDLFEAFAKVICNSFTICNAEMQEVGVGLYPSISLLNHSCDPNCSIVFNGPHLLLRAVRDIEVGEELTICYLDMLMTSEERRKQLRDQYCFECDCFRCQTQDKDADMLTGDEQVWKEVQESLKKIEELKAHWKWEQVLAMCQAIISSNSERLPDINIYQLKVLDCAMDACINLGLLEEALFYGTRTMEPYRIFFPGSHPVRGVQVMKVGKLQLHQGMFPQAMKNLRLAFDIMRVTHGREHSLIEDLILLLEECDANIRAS

[14] = target: Histone-lysine N-methyltransferase EHMT1 (Homo sapiens) (UniProt Q9H9B1); assay: Inhibition of EHMT1 (unknown origin) assessed as incorporation of tritium labeled methyl group from [3H]-SAM to substrate at 1 uM after 1 hr by scintillation proximity assay relative to control
[15] = target: Histone-lysine N-methyltransferase PRDM9 (Homo sapiens) (UniProt Q9NQV7); assay: Inhibition of PRDM9 (unknown origin) assessed as incorporation of tritium labeled methyl group from [3H]-SAM to substrate at 1 uM after 1 hr by scintillation proximity assay relative to control
[16] = target: Histone-lysine N-methyltransferase 2A (Homo sapiens) (UniProt Q03164); assay: Inhibition of MLL1 trimeric complex (unknown origin) assessed as incorporation of tritium labeled methyl group from [3H]-SAM to substrate at 1 uM after 1 hr by scintillation proximity assay relative to control
[17] = target: Histone-lysine N-methyltransferase EZH1 (Homo sapiens) (UniProt Q92800); assay: Inhibition of EZH1 pentameric complex (unknown origin) assessed as incorporation of tritium labeled methyl group from [3H]-SAM to substrate at 1 uM after 1 hr by scintillation proximity assay relative to control
[18] = target: Histone-lysine N-methyltransferase EHMT2 (Homo sapiens) (UniProt Q96KQ7); assay: Inhibition of G9a (unknown origin) assessed as incorporation of tritium labeled methyl group from [3H]-SAM to substrate at 1 uM after 1 hr by scintillation proximity assay relative to control
Sequence of Histone-lysine N-methyltransferase EHMT2 (Homo sapiens) (Q96KQ7 whole entry): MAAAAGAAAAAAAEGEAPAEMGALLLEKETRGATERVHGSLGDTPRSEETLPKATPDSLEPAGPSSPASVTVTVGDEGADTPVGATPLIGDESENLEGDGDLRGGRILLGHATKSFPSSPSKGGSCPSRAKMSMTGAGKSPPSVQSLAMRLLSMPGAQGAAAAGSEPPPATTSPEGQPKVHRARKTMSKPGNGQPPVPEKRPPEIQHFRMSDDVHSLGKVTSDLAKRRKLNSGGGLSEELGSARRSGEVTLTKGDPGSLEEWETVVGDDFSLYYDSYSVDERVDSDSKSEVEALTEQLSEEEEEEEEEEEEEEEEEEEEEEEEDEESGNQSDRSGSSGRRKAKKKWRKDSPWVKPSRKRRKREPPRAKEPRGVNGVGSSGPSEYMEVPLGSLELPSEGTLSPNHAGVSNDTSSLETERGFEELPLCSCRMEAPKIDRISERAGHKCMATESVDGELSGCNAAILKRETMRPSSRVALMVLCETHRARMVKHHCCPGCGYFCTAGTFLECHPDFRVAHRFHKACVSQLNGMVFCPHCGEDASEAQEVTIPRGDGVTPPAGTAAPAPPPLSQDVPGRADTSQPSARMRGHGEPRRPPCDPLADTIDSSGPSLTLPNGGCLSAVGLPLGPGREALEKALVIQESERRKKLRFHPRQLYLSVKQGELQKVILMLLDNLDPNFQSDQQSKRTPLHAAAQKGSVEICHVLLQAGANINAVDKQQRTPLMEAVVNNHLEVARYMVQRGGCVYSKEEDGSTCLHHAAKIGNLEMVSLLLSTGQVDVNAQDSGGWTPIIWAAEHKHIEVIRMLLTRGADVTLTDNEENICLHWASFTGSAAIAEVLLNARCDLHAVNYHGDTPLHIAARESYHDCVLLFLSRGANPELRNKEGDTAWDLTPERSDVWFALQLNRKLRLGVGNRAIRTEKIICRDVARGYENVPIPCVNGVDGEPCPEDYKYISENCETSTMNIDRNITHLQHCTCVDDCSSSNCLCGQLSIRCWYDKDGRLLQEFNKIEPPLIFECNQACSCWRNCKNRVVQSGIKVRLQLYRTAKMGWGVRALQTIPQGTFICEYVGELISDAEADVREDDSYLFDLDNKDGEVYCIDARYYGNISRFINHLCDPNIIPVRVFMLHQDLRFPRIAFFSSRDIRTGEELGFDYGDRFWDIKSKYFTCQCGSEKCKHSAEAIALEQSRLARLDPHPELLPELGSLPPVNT

[19] = target: Histone-lysine N-methyltransferase, H3 lysine-36 specific (Homo sapiens) (UniProt Q96L73); assay: Inhibition of NSD1 (unknown origin) at 1 uM after 1 hr by filter-based assay
[20] = target: Protein arginine N-methyltransferase 8 (Homo sapiens) (UniProt Q9NR22); assay: Inhibition of PRMT8 (unknown origin) assessed as incorporation of tritium labeled methyl group from [3H]-SAM to substrate at 1 uM after 1 hr by scintillation proximity assay relative to control
Sequence of Protein arginine N-methyltransferase 8 (Homo sapiens) (Q9NR22 2-394 limits assumed): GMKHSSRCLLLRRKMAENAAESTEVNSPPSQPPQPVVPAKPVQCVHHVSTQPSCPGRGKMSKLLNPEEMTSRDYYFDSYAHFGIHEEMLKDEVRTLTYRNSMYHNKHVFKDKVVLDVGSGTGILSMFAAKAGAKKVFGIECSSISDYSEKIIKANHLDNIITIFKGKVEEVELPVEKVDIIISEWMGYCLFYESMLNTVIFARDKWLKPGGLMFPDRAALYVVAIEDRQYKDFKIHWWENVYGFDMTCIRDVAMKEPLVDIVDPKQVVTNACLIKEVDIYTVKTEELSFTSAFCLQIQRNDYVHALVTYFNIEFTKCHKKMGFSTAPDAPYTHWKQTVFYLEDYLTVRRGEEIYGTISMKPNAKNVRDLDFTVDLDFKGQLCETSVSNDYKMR

[21] = target: Histone-lysine N-methyltransferase KMT5B (Homo sapiens) (UniProt Q4FZB7); assay: Inhibition of SUV420H1 (unknown origin) assessed as incorporation of tritium labeled methyl group from [3H]-SAM to substrate at 1 uM after 1 hr by scintillation proximity assay relative to control
[22] = target: Protein N-lysine methyltransferase METTL21A (Homo sapiens) (UniProt Q8WXB1); assay: Inhibition of METTL21A (unknown origin) assessed as incorporation of tritium labeled methyl group from [3H]-SAM to substrate at 1 uM after 1 hr by scintillation proximity assay relative to control
Sequence of Protein N-lysine methyltransferase METTL21A (Homo sapiens) (Q8WXB1 whole entry): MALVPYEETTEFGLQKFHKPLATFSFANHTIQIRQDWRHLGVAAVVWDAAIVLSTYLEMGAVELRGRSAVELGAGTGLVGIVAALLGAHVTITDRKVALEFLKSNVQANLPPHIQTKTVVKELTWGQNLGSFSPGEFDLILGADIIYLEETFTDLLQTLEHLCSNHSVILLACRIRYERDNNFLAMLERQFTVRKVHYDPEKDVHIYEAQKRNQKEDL

[23] = target: Protein arginine N-methyltransferase 6 (Homo sapiens) (UniProt Q96LA8); assay: Inhibition of PRMT6 (unknown origin) assessed as incorporation of tritium labeled methyl group from [3H]-SAM to substrate at 1 uM after 1 hr by scintillation proximity assay relative to control
[24] = target: Histone-lysine N-methyltransferase SUV39H2 (Homo sapiens) (UniProt Q9H5I1); assay: Inhibition of SUV39H2 (unknown origin) assessed as incorporation of tritium labeled methyl group from [3H]-SAM to substrate at 1 uM after 1 hr by scintillation proximity assay relative to control
Sequence of Histone-lysine N-methyltransferase SUV39H2 (Homo sapiens) (Q9H5I1 whole entry): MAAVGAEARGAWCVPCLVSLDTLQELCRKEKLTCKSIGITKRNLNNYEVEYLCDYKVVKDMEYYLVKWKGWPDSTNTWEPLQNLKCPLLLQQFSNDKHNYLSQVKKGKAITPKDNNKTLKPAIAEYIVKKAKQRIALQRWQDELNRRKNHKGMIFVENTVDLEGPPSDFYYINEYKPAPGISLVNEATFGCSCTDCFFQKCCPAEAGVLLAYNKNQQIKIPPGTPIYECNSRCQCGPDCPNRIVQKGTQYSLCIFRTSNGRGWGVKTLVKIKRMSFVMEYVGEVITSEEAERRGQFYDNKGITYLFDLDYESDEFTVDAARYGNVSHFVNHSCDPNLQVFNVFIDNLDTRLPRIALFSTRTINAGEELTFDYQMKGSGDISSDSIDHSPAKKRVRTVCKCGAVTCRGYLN

[25] = test system: A549; assay: Effect on p53 protein level in human A549 cells at 10 uM after 18 hrs; type: functional, cell-based
[26] = target: Protein arginine N-methyltransferase 1 (Homo sapiens) (UniProt Q99873); assay: Inhibition of PRMT1 (unknown origin) assessed as incorporation of tritium labeled methyl group from [3H]-SAM to substrate at 1 uM after 1 hr by scintillation proximity assay relative to control
[27] = target: DNA (cytosine-5)-methyltransferase 1 (Homo sapiens) (UniProt P26358); assay: Inhibition of DNMT1 (unknown origin) assessed as incorporation of tritium labeled methyl group from [3H]-SAM to dsDNA substrate at 1 uM after 1 hr by scintillation proximity assay relative to control
[28] = target: Histone-lysine N-methyltransferase SETD7 (Homo sapiens) (UniProt Q8WTS6); assay: Inhibition of SETD7 (unknown origin) assessed as incorporation of tritium labeled methyl group from [3H]-SAM to substrate at 1 uM after 1 hr by scintillation proximity assay relative to control
[29] = target: Histone-lysine N-methyltransferase SUV39H2 (Homo sapiens) (UniProt Q9H5I1); assay: Inhibition of SUV39H2 (unknown origin) assessed as incorporation of tritium labeled methyl group from [3H]-SAM to substrate at 10 to 50 uM after 1 hr by scintillation proximity assay relative to control
[30] = target: Histone-lysine N-methyltransferase SETD2 (Homo sapiens) (UniProt Q9BYW2); assay: Inhibition of SETD2 (unknown origin) assessed as incorporation of tritium labeled methyl group from [3H]-SAM to substrate at 1 uM after 1 hr by scintillation proximity assay relative to control
[31] = target: Protein arginine N-methyltransferase 3 (Homo sapiens) (UniProt O60678); assay: Inhibition of PRMT3 (unknown origin) assessed as incorporation of tritium labeled methyl group from [3H]-SAM to substrate at 10 to 50 uM after 1 hr by scintillation proximity assay relative to control
Sequence of Protein arginine N-methyltransferase 3 (Homo sapiens) (O60678 2-531 limits assumed): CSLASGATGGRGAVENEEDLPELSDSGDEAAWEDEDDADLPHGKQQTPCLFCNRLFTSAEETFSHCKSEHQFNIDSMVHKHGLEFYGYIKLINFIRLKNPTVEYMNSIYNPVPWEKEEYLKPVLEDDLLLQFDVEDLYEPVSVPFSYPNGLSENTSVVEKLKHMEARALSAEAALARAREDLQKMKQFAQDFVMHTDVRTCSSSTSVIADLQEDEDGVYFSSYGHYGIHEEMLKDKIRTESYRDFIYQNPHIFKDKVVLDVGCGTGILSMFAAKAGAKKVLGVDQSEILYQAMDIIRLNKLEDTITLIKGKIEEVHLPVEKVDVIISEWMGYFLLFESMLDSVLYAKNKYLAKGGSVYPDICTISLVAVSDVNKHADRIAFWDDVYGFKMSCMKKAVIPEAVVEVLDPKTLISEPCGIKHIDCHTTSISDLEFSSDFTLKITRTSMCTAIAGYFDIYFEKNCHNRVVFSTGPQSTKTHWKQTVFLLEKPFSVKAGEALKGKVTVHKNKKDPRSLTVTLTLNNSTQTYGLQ

[32] = target: Histone-lysine N-methyltransferase NSD2 (Homo sapiens) (UniProt O96028); assay: Inhibition of NSD2 (unknown origin) at 1 uM after 1 hr by filter-based assay
[33] = target: Histone-lysine N-methyltransferase SMYD3 (Homo sapiens) (UniProt Q9H7B4); assay: Inhibition of SMYD3 (unknown origin) assessed as incorporation of tritium labeled methyl group from [3H]-SAM to substrate at 1 uM after 1 hr by scintillation proximity assay relative to control
[34] = target: Protein arginine N-methyltransferase 3 (Homo sapiens) (UniProt O60678); assay: Inhibition of PRMT3 (unknown origin) assessed as incorporation of tritium labeled methyl group from [3H]-SAM to substrate at 1 uM after 1 hr by scintillation proximity assay relative to control
[35] = target: Histone-lysine N-methyltransferase EZH2 (Homo sapiens) (UniProt Q15910); assay: Inhibition of EZH2 trimeric complex (unknown origin) assessed as incorporation of tritium labeled methyl group from [3H]-SAM to substrate at 1 uM after 1 hr by scintillation proximity assay relative to control
[36] = target: Protein N-lysine methyltransferase METTL21D (Homo sapiens) (UniProt Q9H867); assay: Inhibition of METTL21D (unknown origin) assessed as incorporation of tritium labeled methyl group from [3H]-SAM to substrate at 1 uM after 1 hr by scintillation proximity assay relative to control
[37] = target: DNMT3B-DNMT3L complex (Homo sapiens) (UniProt Q9UBC3+Q9UJW3); assay: Inhibition of DNMT3B/3L (unknown origin) at 1 uM after 1 hr by filter-based assay; type: protein-complex assay
[38] = test system: A549; assay: Upregulation of p53 protein level in human A549 cells at 10 uM after 18 hrs relative to control; type: functional

Sequence of N-lysine methyltransferase SMYD2 (Q9NRG4 whole entry): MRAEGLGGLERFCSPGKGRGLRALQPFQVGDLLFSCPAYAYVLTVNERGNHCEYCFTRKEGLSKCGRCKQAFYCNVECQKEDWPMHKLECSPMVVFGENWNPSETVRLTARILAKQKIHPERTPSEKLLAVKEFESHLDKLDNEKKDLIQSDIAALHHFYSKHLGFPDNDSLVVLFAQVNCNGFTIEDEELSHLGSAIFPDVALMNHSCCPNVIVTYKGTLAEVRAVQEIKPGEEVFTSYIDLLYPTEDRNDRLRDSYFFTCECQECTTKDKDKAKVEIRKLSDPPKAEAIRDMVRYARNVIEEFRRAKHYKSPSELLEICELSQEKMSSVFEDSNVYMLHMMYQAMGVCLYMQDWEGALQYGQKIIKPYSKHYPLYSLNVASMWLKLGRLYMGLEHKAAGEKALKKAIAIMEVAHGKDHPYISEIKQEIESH

O=C1COc2c(CCNCCN(C(=O)CCNCCc3ccccc3)C3CCCC3)ccc(O)c2N1
IC50 [1]: 2.2 µM

O=C1COc2c(cccc2[C@@H](O)CNCCN(C(=O)CCNCCc2ccc(Cl)c(Cl)c2)C2CCCCC2)N1
inhibition [2]: inactive
inhibition [3]: inactive
inhibition [4]: inactive
inhibition [5]: 65%
inhibition [6]: inactive
inhibition [7]: inactive
inhibition [8]: inactive
inhibition [9]: inactive
inhibition [10]: inactive
inhibition [11]: inactive
inhibition [12]: inactive
inhibition [13]: 65%
inhibition [14]: inactive
inhibition [15]: inactive
inhibition [16]: inactive
inhibition [17]: inactive
IC50 [1]: 0.0028 µM
inhibition [18]: inactive
inhibition [19]: inactive
inhibition [20]: inactive
inhibition [21]: inactive
inhibition [22]: inactive
inhibition [23]: inactive
inhibition [24]: inactive
Activity [25]: inactive
inhibition [26]: inactive
inhibition [27]: inactive
inhibition [28]: inactive
inhibition [29]: 65%
inhibition [30]: inactive
inhibition [31]: 65%
inhibition [32]: inactive
inhibition [33]: inactive
inhibition [34]: inactive
inhibition [35]: inactive
inhibition [36]: inactive
inhibition [37]: inactive

O=C(CCNCCc1ccc(Cl)c(Cl)c1)N(CCNCCN1CCCC1)C1CCCCC1
IC50 [1]: 5 µM

O=C1COc2c(CCNCCN(C(=O)CCNCc3ccc(Cl)c(Cl)c3)C3CCCCC3)ccc(O)c2N1
IC50 [1]: 3.1 µM

O=C1COc2c(CCNCCN(C(=O)CCNCCc3ccc(Cl)c(Cl)c3)C3CCCCC3)ccc(O)c2N1
IC50 [1]: 0.23 µM
fold change (FC) [38]: >3

O=C1COc2c(cccc2[C@H](O)CNCCN(C(=O)CCNCCc2ccc(Cl)c(Cl)c2)C2CCCCC2)N1
IC50 [1]: 0.0056 µM

O=C(CCNCCc1ccc(Cl)c(Cl)c1)N(CCNCCCN1CCCC1)C1CCCCC1
IC50 [1]: 1.4 µM

O=C(CCNCCc1ccc(Cl)c(Cl)c1)N(CCNCCCN1CCCCC1)C1CCCCC1
IC50 [1]: 2.4 µM

O=C1COc2c(CCNCCN(C(=O)CCNCCc3ccccc3)C3CCC3)ccc(O)c2N1
IC50 [1]: 26 µM

O=C1COc2c(CCNCCN(C(=O)CCNCCc3ccccc3)C3CCCCC3)ccc(O)c2N1
IC50 [1]: 0.44 µM
